From US20250049789A1, “METHODS OF TREATING ALOPECIA ARAETA” (AbbVie Inc., priority 2023, published 2025)

System: alopecia areata
Experiment: Efficacy and safety of upadacitinib in AD patients with concomitant alopecia areata (SALT, AA-IGA)
Format: in vivo, human
From the text: According to data reported in the patient clinical report forms by each investigator, all AD patients who were concomitantly suffering from alopecia areata at the baseline visit were identified. Medical records included demographic characteristics such as age, sex, occupation, smoking habits (smoker, former smoker, or non-smoker), AD history and severity, alopecia areata history and severity, prior treatments, atopic and non-atopic comorbidities, serum IgE levels, and concomitant therapies.
Patients were evaluated at baseline, and follow-up visits were scheduled after 4 weeks from baseline, and every 12 weeks thereafter. At baseline and at each follow-up visit, AD severity was assessed by Eczema Area and Severity Index (EASI) together with other tools. To evaluate severity and treatment response of alopecia areata, Severity of Alopecia Tool (SALT) and Alopecia Areata-Investigator Global Assessment (AA-IGA) were performed, as commonly used in daily practice. […] The SALT change throughout the observation period was recorded as the difference between the baseline SALT score and the SALT score value calculated at each follow-up visit (A SALT).
Qualitative and quantitative variables were described as relative frequencies (%), mean and standard deviation (or medians and interquartile ranges [IR], as appropriate), respectively. […] Data are reported and analysed “as observed”. […]

CC[C@@H]1CN(C(=O)NCC(F)(F)F)C[C@@H]1c1cnc2cnc3[nH]ccc3n12 [upadacitinib, (3S,4R)-3-ethyl-4-(3H-imidazo[1,2-a]pyrrolo[2,3-e]pyrazin-8-yl)-N-(2,2,2-trifluoroethyl)pyrrolidine-1-carboxamide]
predicted SALT reduction for each 1-unit increase in the age of alopecia areata onset (multivariable regression, independent of baseline SALT and sex): 2.1 point
patients with clinically meaningful hair regrowth (achievement of at least SALT 50 response) (upadacitinib 30 mg once daily, after 4 weeks of treatment): about 16%
